Data as given in patent US9403873B2, “Peptides targeting receptor activator of nuclear factor-κB (RANK) and their applications” (UNIVERSITE DE NANTES, priority 2011, dated 2016).
pKd: −log10 of the molar value. Ends that are not written are not given here. (PEG)5 = linear (PEG)5 polyethylene glycol chain at N-terminal amino acid

What was measured:
[1] = system: ovariectomized C57BL/6 mice; assay: Ovariectomy-induced bone loss in mice, micro-CT of tibiae and L4 vertebrae; format: in vivo, mouse; conditions: 35 days
Excerpt: Eight-week-old ovariectomized (OVX) female C57BL6 and non-ovariectomized control mice were purchased from Janvier (Le Genest Saint Ilsle, France). Mice were housed under pathogen-free conditions at the Experimental Therapy Unit (Faculty of Medicine, University of Nantes, France), and animal care and experimental protocols were approved by the French Ministry of Research and were done in accordance with the institutional guidelines of the French Ethical Committee and under the supervision of authorized investigators. After recovery from OVX surgery for 7 days and acclimation, the mice were randomly divided into treatment groups receiving daily subcutaneous injections of a peptide and a control group receiving daily injections of the vehicle (PBS) only. Non-ovariectomized or sham-operated mice were included in the studies as healthy controls. Three experimental protocols were established. Protocol 1: Ovariectomized mice received daily s.c. injections of 10 mg/kg body weight Pep8 (Pep8, n=8) or vehicle only (OVX, n=8). Non-ovariectomized (NOV, n=8) mice served as normal controls. Protocol 2: Ovariectomized mice were randomly divided into four groups (n=8), receiving daily treatments with pegylated Pep8 (Pep8-NPEG5) at 10 mg/kg or 2.5 mg/kg, or unpegylated Pep8 at a dose of 10 mg/kg/d, or the vehicle only. Sham-operated mice (n=5) served as healthy controls. Protocol 3: Ovariectomized mice receiving daily treatments with pegylated Pep8 (Pep8-NPEG8) at 10 mg/kg or 2.5 mg/kg, as described before, or unpegylated Pep8 at a lower dose of 2.5 mg/kg/d, or the vehicle only. Sham-operated mice (n=8) served as healthy controls.
During the experimental period, the body weight of the mice was monitored. […] After treatment for five weeks, mice were anesthetized with isoflurane (2%, 1 L/min) and sacrificed by cervical dislocation. Lumbar vertebrae and tibiae were collected for micro-CT analysis and stored at 4° C. in 4% paraformaldehyde until further analysis. Additionally, internal organs (heart, liver, lungs, kidneys, spleen, intestines and thymus) of some mice (n=3 per group) were harvested and stored for toxicity screening.
Analysis of architectural variables of tibiae and vertebrae of mice was performed using the high-resolution X-ray micro-CT system for small animal imaging SkyScan-1072 (SkyScan, Belgium). After scanning, the image data were transferred to a workstation and the proximal tibiae and the fourth lumbar vertebrae (L4) were rendered for 3-D display and calculation of the structural indices (Parfitt et al. 1987) using the SkyScan analysis system (CT-analyser, CT-volume, SkyScan). For trabecular bone parameters in tibiae, transverse CT slices were obtained in the region of interest in the axial direction from the trabecular bone ca. 0.1 mm below the growth plate to the mid-femur. Contours were defined and drawn close to the cortical bone. The trabecular bone was then removed and analyzed separately. Fifty slices (1 mm) at approximately […] distal to the growth plate of the proximal ends of the tibiae were used for analysis. […] The threshold level for the measurements was set at 55 for the analyses. The analysis of the specimens involved the following bone measurements: bone volume fraction (BV/TV, %), trabecular number (TbN), trabecular thickness (TbTh) and trabecular spacing (TbSp).

hRANK = molecular target: T1, hRANK (Homo sapiens, UniProt Q9Y6Q6); assay: Surface plasmon resonance (Biacore) binding to immobilized RANK-Fc; conditions: SPR, 1:1 Langmuir model
T1 construct: For NMR experiments with soluble RANK receptor-Fc (R&D Systems); purchased R&D Systems
T1 sequence (Q9Y6Q6 30-212 limits assumed): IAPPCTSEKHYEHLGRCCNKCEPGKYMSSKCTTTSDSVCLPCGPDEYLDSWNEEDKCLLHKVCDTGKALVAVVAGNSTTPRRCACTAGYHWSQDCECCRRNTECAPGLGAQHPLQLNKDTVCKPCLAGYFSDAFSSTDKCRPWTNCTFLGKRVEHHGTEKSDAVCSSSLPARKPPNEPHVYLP
Experimental: Biosensor experiments were carried out on a BIAcore 3000 instrument (BIAcore) as published previously (Baud′Huin et al. 2009). Recombinant purified RANKL (2 μg/mL in 5 mM maleate, pH 5.75) or RANK-Fc carrier-free (5 μg/mL in sodium acetate buffer, pH 5.0) were covalently immobilized to the dextran matrix of a CM5 sensor chip (BIAcore) at a flow rate of 5 μL/min. Immobilization levels ranging from 400 to 3000 Response Units (RU) for RANKL or 5000 RU for RANK were obtained. Binding assays were performed at 25° C. in 10 mM Hepes buffer, pH 7.4. The association phase was 180 seconds followed by a dissociation phase in the same buffer. Polypeptides binding studies to RANK or RANKL were determined using single cycle kinetics, starting with 100 μM of the polypeptide of interest followed by 2-fold serial dilutions (ranging from 100 to 0.78 μM). The sensorgrams were fitted to calculate the equilibrium-dissociation constants using the Langmuir 1:1 model with BiaEval 4.1 software (BIAcore). RANK-Fc CF, RANKL and OPG carrier-free were obtained from R&D Systems (Minneapolis, Minn., USA).

Substance	protection against OVX-induced trabecular bone loss (μCT, tibiae) ([1]; 2.5 mg/kg/d s.c.)	trabecular BV/TV and TbN, tibiae ([1]; 2.5 mg/kg/d, vs vehicle)	protection against OVX-induced trabecular bone loss (μCT) ([1]; 10 mg/kg/d s.c.)	pKd (hRANK; 25° C., pH 7.4, read-out: binding affinity (Kd) to hRANK)	kon (hRANK; read-out: association rate constant (kon))	koff (hRANK; read-out: dissociation rate constant (koff))
Pep8-NPEG5: Pep8 carrying a linear (PEG)5 polyethylene glycol chain at the N-terminal amino acid ({(PEG)5}-NVLKLCSGE)	almost as effective	significantly increasing	attenuated bone loss in OVX mice to the same extent as treatment with the unpegylated peptide	–	–	–
ELASYIIITQLG [Pep1, ELASYIIITQLG]	–	–	–	4.69	13.5 M⁻¹ s⁻¹	0.000278 s⁻¹
